According to patent publication US11352604B2, “Method of making cardiomyocytes from human pluripotent cells” (Wisconsin Alumni Research Foundation, priority 2016, dated 2022):

Experiments:
Type in all cases: cell-based, human
DBT, ATP5F1, SLC25A4 = assay: Quantitative immunostaining of upregulated metabolic proteins; conditions: hPSC-CMs from pI:C-treated vs untreated progenitors
Protocol: For internal antigens, cells were rinsed of media two times in PBS, fixed for 10 minutes in 4% paraformaldehyde at RT, rinsed three times again in PBS, then blocked for 1 hour at room temperature (RT) in Licor blocking buffer containing 0.2% Triton x-100 (Sigma). Blocking solution was aspirated and antibodies added overnight at 4° C. in fresh blocking/permeabilization solution. Antibodies used were mouse cardiac troponin T (Thermo Fisher Scientific, 1:200), rabbit WT1 (Abcam 1:200), mouse smooth muscle myosin heavy chain (Abcam, 1:200), goat Jag1 c-terminal domain (1:200 Abcam), MMP1 (Abcam, 1:200), mouse cardiac actin (Sigma, 1:200), rabbit SLC25A4 (Proteintech, 1:100), rabbit DBT (Proteintech, 1:100), rabbit ATP5F1 (Proteintech, 1:100), rabbit Irx4 (Abcam, 1:200), goat nkx2.5 (Santa Cruz, 1:50), mouse connexin 40 (Thermo Fisher Scientific, 1:200), and fibroblast-specific protein (Abcam, 1:100). After primary and secondary antibodies, cells were rinsed two times in PBS with 0.2% triton x-100. Donkey secondaries conjugated to Alexa Fluor dyes were used at 1:1000 and incubated at RT for 1 h. DAPI or Hoechst was used to visualize nuclei. Cells were imaged either on an EVOS system in wells (Thermo Fisher Scientific) or a Leica confocal microscope in cover glass or ibidi 8-well microslides. Image J was used to quantify cell area by outer boundaries of cTnT staining.

hPSC-CMs [1] = assay: Cardiomyocyte yield and purity in GiWi differentiation; conditions: day 30, pI:C alone vs untreated
Protocol: To differentiate cardiomyocytes from hPSCs, the small molecule temporal modulation of the Wnt pathway (GiWi) monolayer protocol was used essentially as previously described (Lian et al., 2012). Human embryonic or induced pluripotent stem cells were dissociated with Versene (Thermo Fisher Scientific) for 6 minutes at 37° C., pipetted up and down 40 times, counted with a hemocytometer, spun down at 100×g for 5 minutes, and resuspended and seeded for differentiation at 1.5 million cells per well in 6 well plates or 0.4 million per well in 12 well plates in mTeSR® on stem-cell verified Matrigel® (WiCell) containing 10 μM Y-27632 ROCK-inhibitor (Tocris). After four days in mTeSR® (WiCell), at which point cells grew to 100 percent confluence, medium was switched to RPMI supplemented with B27 supplement not containing insulin (Thermo Fisher Scientific) and containing 12 μM of the Wnt agonist CHIR99021 (Tocris) for exactly 24 hours. Media was then changed to RPMI supplemented with B27 not containing insulin for exactly 48 hours. Then medium was then switched at day 3 to RPMI supplemented with B27 not containing insulin and containing 5 μM IWP2 (Tocris). At day 5, media was switched to RPMI supplemented with B27 not containing insulin for two days. At day 7 and every three days afterward, medium was replaced with RPMI supplemented with B27 containing insulin (Thermo Fisher Scientific). […]

hPSC-CMs [2] = assay: Seahorse oxygen consumption rate; conditions: cardiomyocytes from treated vs untreated progenitors
Protocol: After hPSC-CM dissociation of day 40-70 lactate-purified hPSC-CMs from the H9 cTnT-GFP reporter cell line, 25,000 cells per well were replated into Synthemax®-coated wells of Seahorse XF96 V3 PS cell culture plates (Agilent). Plates were analyzed for basal and maximal oxygen consumption rate with a Seahorse XF cell mito stress kit according to the manufacturer's instructions (Agilent) using concentrations of 1 μM oligomycin, 2 μM FCCP, and 0.5 μM Rotenone/antimycin A. Purity was determined by dissociating seahorse wells after analysis and doing live cell flow cytometry for cTnT-GFP. To directly compare data between plate runs/biological replicates, the fold change between hPSC-CMs from pI:C− and pI:C+ progenitors was computed for each sample's maximal and basal oxygen consumption rate normalized to total protein estimated after cell lysis in EBC buffer. Log2 of the fold changes was tested for significance in a one-sample t test against a null hypothesis of 0.

polyinosinic-polycytidylic acid [pI:C]
expression of DBT, ATP5F1 and SLC25A4 (DBT, ATP5F1, SLC25A4): increased expression | yield of cardiomyocytes (hPSC-CMs [1]): more than double the yield | basal oxygen consumption rate (hPSC-CMs [2]): approximately 2 fold | maximal oxygen consumption rate (hPSC-CMs [2]): approximately 2 fold
